Test results: patent US20260166046A1, “Inhibitors of methionine aminopeptidase-2 and methods of preparation and uses thereof” (Primetime Life Sciences LLC, priority 2022, published 2026)

Tests used:
[1] = in vivo; cited from earlier work
Recombinant human MetAP2 = molecular target: T1, Recombinant human MetAP2 (Homo sapiens, UniProt P50579); test: MetAP2 fluorescence assay; format: biochemical; conditions: recombinant human MetAP2, H-Met-Gly-Pro-AMC substrate
T1 construct: purchased Bio-Techne/R&D systems
Description: MetAP2 Fluorescence Assay
Recombinant human MetAP2 (Bio-Techne/R&D systems) was diluted to 10 μg/mL in the assay buffer (50 mM HEPES, 0.1 mM CoCl2, 100 mM NaCl, pH 7.5). The substrate, H-Met-Gly-Pro-AMC (Bio-Techne/R&D systems), was diluted to 500 μM with 2 μg/mL of the coupling enzyme, recombinant human dipeptidyl peptidase-4 (Bio-Techne/R&D systems), in assay buffer. 50 μL of 10 μg/mL recombinant human METAP2 were loaded into a flat-bottom black 96-well plate (Greiner Bio), and the reaction was initiated by adding 50 μL of the substrate/dipeptidyl peptidase-4 mixture. The reaction mixture was incubated at room temperature for 10 minutes, and the fluorescence was measured for 5 minutes at excitation and emission wavelengths of 380 nm and 460 nm, respectively, in kinetic mode. For IC50determination, 0.5 μL inhibitor solution was added to the reaction mixture. The reaction rates were used to calculate IC50with KaleidaGraph.

G. lamblia GS = test: Trophozoite viability IC50 determination, Giardia assay (ATPLite); format: cell-based; conditions: Giardia duodenalis, 72 h, read-out: Cell viability values Mean IC50 (nM) G. lamblia GS
Description: (§1) Giardia cultures: Trophozoites of G. lamblia isolates WB and GS were grown anaerobically in borosilicate glass screw-cap culture tubes (Fisher Scientific) at pH 7.0 in modified TYI-S-33 medium. The medium was supplemented with 10% heat-inactivated bovine serum (Sigma-Aldrich) and 0.05% bovine bile (Sigma-Aldrich). To attain low-oxygen-tension conditions, the tubes were filled to 85 to 90% of their total volume capacity and incubated without shaking at 37° C. Subcultures (2×10^5 trophozoites per tube) were made three times a week. Detachment of trophozoites for inoculation was achieved by chilling the cultures on ice for 20 min. Culturing and detachment of Metronidazole-resistant G. lamblia Assemblage A 713M3 and assemblage B 1279-M1 trophozoites followed the same protocol, except that the growth medium was supplemented with metronidazole gradually increasing the concentration to 10 μM. Amebae cultures: E. histolytica strain HM1:IMSS trophozoites were grown at 37° C. in TYI-S-33 medium supplemented with penicillin (100 U/mL) and streptomycin sulfate (100 μg/mL). Trophozoites were grown anaerobically in borosilicate tubes and subcultures were made 1-2 times a week. Trophozoites were detached for inoculation by chilling the cultures on ice for 20 minutes.
(§2) Trophozoite viability IC50determination
(§3) Giardia assays: 10 μL giardia trophozoites in growth medium were plated at a density of 10,000 cells/well in sterile 96-well black clear bottom assay plates. Fumagillin and fumagillol derivatives were 1:3 serially diluted from a 1 μM DMSO stock solution and then 100 μL/well were transferred in duplicate to the assay wells. Metronidazole (control) was 1:3 serially diluted in growth medium from a 100 μM stock solution in DMSO. The assay plates were placed in a BD GasPak™ EZ Container System (BD Diagnostics) to create an anaerobic growth environment. The sealed containers were incubated at 37° C. for 72 hr. Following incubation, 70 μL/well of the ATPLite reagent (PerkinElmer) was added to the assay plates for one-step lysis and ATP level detection. The luminescent signals of the assay plates were measured on an EnSpire 2300 plate reader (PerkinElmer). Concentration response titration points for each compound were fitted to a 4-parameters logistic nonlinear regression model using KaleidaGraph, yielding the IC50value and standard error (SE).

G. lamblia WB = test: as above; format: cell-based; conditions: Giardia duodenalis, 72 h, read-out: Cell viability values Mean IC50 (nM) G. lamblia WB
Description: as §1, §2, §3

E. histolytica HM1: IMSS = test: Trophozoite viability IC50 determination, Amebae assay (ATPLite); format: cell-based; conditions: Entamoeba histolytica, 72 h, read-out: Cell viability values Mean IC50 (nM) E. histolytica HM1: IMSS
Description: as §1, §2, §3
Amebae assays: The protocol is identical to that described above except that the trophozoites were plated at a density of 5000 cells/well because of their larger size.

T1 sequence (P50579 whole entry): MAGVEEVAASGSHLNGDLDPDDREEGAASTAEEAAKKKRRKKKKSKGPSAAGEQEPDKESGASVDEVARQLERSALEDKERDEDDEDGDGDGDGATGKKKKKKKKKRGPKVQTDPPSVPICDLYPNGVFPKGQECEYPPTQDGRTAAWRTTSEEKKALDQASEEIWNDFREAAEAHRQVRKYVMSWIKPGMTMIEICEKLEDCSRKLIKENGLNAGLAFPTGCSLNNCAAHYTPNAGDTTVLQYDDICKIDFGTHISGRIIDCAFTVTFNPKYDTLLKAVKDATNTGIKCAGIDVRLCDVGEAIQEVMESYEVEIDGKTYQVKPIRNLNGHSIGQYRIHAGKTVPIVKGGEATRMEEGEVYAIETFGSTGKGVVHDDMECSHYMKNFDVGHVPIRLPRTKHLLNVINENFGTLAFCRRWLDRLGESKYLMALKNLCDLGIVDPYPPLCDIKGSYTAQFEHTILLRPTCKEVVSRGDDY

CO[C@@H]1[C@H](OC(=O)/C=C/C=C/C=C/C=C/C(=O)O)CC[C@]2(CO2)[C@H]1[C@@]1(C)O[C@@H]1CC=C(C)C [Fumagillin]
body weight loss [1]: > 15%
immune-compromised patients with reversible toxic effect on bone marrow (primarily Thrombocytopenia) [1]: 33%
spontaneous platelet count recovery after halting therapy [1]: 1-2 weeks

CO[C@@H]1[C@H](OC(=O)Nc2ccc(B(O)O)c(F)c2)CC[C@]2(CO2)[C@H]1[C@@]1(C)O[C@@H]1CC=C(C)C [No 65]
IC50 (Recombinant human MetAP2): < 10 nM
IC50 (G. lamblia GS): < 10 nM
IC50 (G. lamblia WB): 101 to 1000 nM
IC50 (E. histolytica HM1: IMSS): > 1000 nM

CO[C@@H]1[C@H](OC(=O)N[C@@H](CC(C)C)B(O)O)CC[C@]2(CO2)[C@H]1[C@@]1(C)O[C@@H]1CC=C(C)C [No 67]
IC50 (Recombinant human MetAP2): < 10 nM
IC50 (G. lamblia GS): 10.1 to 100 nM
IC50 (G. lamblia WB): 101 to 1000 nM
IC50 (E. histolytica HM1: IMSS): 101 to 1000 nM

CO[C@@H]1[C@H](OC(=O)N[C@H](CC(C)C)B(O)O)CC[C@]2(CO2)[C@H]1[C@@]1(C)O[C@@H]1CC=C(C)C [No 68]
IC50 (Recombinant human MetAP2): < 10 nM
IC50 (G. lamblia GS): 101 to 1000 nM
IC50 (G. lamblia WB): > 1000 nM
IC50 (E. histolytica HM1: IMSS): > 1000 nM

CO[C@@H]1[C@H](OC(=O)N[C@@H](C)B(O)O)CC[C@]2(CO2)[C@H]1[C@@]1(C)O[C@@H]1CC=C(C)C [No 69]
IC50 (Recombinant human MetAP2): < 10 nM
IC50 (G. lamblia GS): 10.1 to 100 nM
IC50 (G. lamblia WB): > 1000 nM
IC50 (E. histolytica HM1: IMSS): > 1000 nM

CO[C@@H]1[C@H](OC(=O)N[C@H](C)B(O)O)CC[C@]2(CO2)[C@H]1[C@@]1(C)O[C@@H]1CC=C(C)C [No 70]
IC50 (Recombinant human MetAP2): < 10 nM
IC50 (G. lamblia GS): 10.1 to 100 nM
IC50 (G. lamblia WB): 101 to 1000 nM
IC50 (E. histolytica HM1: IMSS): > 1000 nM
